Entries after “also recorded” stand apart in the source; their conditions may differ.
Tests used:
[1] = system: H1N1 subtype of influenza virus A/PR/8; test: Test Example 1: oral administration to mice infected with influenza virus (1,000 pfu/mouse), body weights and survival rates; assay type: in vivo
Method: Test solutions were prepared for the test groups and control group shown in Table 1 below, respectively, and effects of oral administration of the solutions on mice infected with an influenza virus were examined. It should be noted that “Tamiflu dry syrup 3%” (product name, Chugai Pharmaceutical Co., Ltd.) was used as an anti-influenza drug oseltamivir.
As experimental animals, mice (C57BL/6NJc1, male, 6 weeks old) were used, and as the influenza virus, H1N1 subtype of influenza virus A/PR/8 was used. Infection of the mice with the influenza virus was carried out as follows. That is, the mice were placed in a container filled with isoflurane, and taken out after confirming that their breathing became slow. […] After confirming that the mice recovered from anesthesia, the mice were returned to breeding cages.
It should be noted that the culture solution of Aureobasidium (Test group 1) was orally administered every day during the test period by a sonde method once a day in an amount of 200 μL. […] The body weights of the mice after infection with the virus were measured every day, and transition of the body weights and survival rates were determined.

[2] = system: H1N1 subtype of influenza virus A/PR/8; test: Test Example 4: virus titer in lung of mouse (plaque count on MDCK cells); assay type: in vivo, mice
Method: In order to study mechanisms of the effects shown in Test Examples 1 to 3, influences on a virus titer in the lung of a mouse infected with the influenza virus were examined. Specifically, test solutions were prepared for the test groups and control group shown in Table 7 below, respectively, and orally administered, and the virus titer in the lung of each mouse infected with the influenza virus was examined. It should be noted that the phrase “dead bacterial cells of EF lactic acid bacterium” in the table means a commercially available heat-sterilized bacterial cell powder of Enterococcus faecalis.
That is, the mice were infected with the influenza virus in the same manner as in Test Example 2 except that the period after the beginning of administration of the test solutions was changed to one week. […] In the case of Test group 14, the test was carried out in the same manner as in Test group 13 except that the dead bacterial cells of the lactic acid bacterium (6.7×10^9 cells) were used in combination as a suspension in 200 μL of the culture solution of Aureobasidium. In addition, in the case of Test group 15, to which only oseltamivir was administered, in order to carry out comparison with the maximum effect of administration of only oseltamivir, oseltamivir was orally administered continuously every day (morning and evening, in an amount of 200 μL per dose) after virus infection.
The virus titer in the lung of a mouse was measured as follows.
On day 1, day 3, and day 5 of virus infection, three mice of each group were dissected, and the lung washed with PBS to remove blood was collected. The collected lung was crushed, and the tissue was separated as a cell suspension and then centrifuged at 5,000 rpm for 10 minutes. The supernatant was collected and used as a sample. The collected sample was diluted serially in 10-fold steps with 1×MEM to concentrations ranging from 10^−1 to 10^−6. On the other hand, MDCK cells were cultured from the previous day, and a state in which the MDCK cells (one sample: one 12-well plate) were proliferated to confluency was confirmed. Then, the medium of the MDCK cells was removed, and the cells were washed with 1 ml of PBS. PBS used for washing was removed, and each of the samples diluted serially was added in an amount of 100 μL, and then the plate was allowed to stand still in a 5% CO2 incubator (37° C.) for one hour. During incubation, the plate was shaken every 15 minutes to prevent the cells from drying. Subsequently, 2×MEM was mixed with an equal amount of a 1.6% agar solution, and trypsin was added so as to reach a final concentration of 0.0005% to prepare a MEM-agar solution. The solution was warmed in a water bath at 42° C. One hour later, the virus solution was removed, and the cells were washed with 1 ml of PBS. The prepared MEM-agar solution was added to each well in an amount of 1 ml, and the plate was allowed to stand for a while until the agar was solidified. After that, the cells were cultured in a 5% CO2 incubator (35° C.), and 48 hours later, the number of plaques was counted.

T cells = system: T cells; design: species or system mice; conditions: mouse, in vivo
NK cells = system: NK cells; design: species or system mice; conditions: mouse, in vivo
[3] = system: H1N1 subtype of influenza virus A/PR/8; test: Test Example 2: oral administration to mice infected with influenza virus (2,000 pfu/mouse), body weights and survival rates; assay type: in vivo
Method: It should be noted that the phrase “dead bacterial cells of EF lactic acid bacterium” in the table means a commercially available heat-sterilized bacterial cell powder of Enterococcus faecalis.
Infection of mice used as experimental animals with the influenza virus was carried out so that the virus titer was twice as large as that in Test Example 1. That is, the infection was carried out in the same manner as in Test Example 1 except that a diluted virus solution having a virus titer of 4×10^4 pfu/mL was injected from both nasal cavities alternately using a micropipette in an amount of 50 μL (2,000 pfu/mouse).
That is, in the case of each of Test groups 3 to 5 and Control group 2, the test solution was orally administered every day during the test period by the sonde method once a day in an amount of 200 μL. […]
The body weights of the mice after infection with the virus were measured every day, and transition of the body weights and survival rates were determined.

CCOC(=O)C1=C[C@@H](OC(CC)CC)[C@H](NC(C)=O)[C@@H](N)C1 [Test group 2, oseltamivir]
survival rate ([1]; 1,000 pfu/mouse, oral, until day 14 of infection, 3 mice): 100% | body weight increase at the end of the test (day 14 of infection) as compared to the first day of infection ([1]; individual mouse, 1,000 pfu/mouse): 5% | body weight at completion of the test ([1]; individual mouse, after recovery, day 14 of infection): same body weight as that on the first day of infection | body weight decrease at completion of the test as compared to the first day of infection ([1]; individual mouse, day 14 of infection): 3% | body weight decreased by up to ([1]; individual mouse, maximum loss after infection, 1,000 pfu/mouse): about 20%; also recorded: about 25% | Comparison of virus titers (virus titer for administration of PBS on each day after infection is defined as 1) ([2]; 1 day after infection): 1/5 | Comparison of virus titers (virus titer for administration of PBS on each day after infection is defined as 1) ([2]; 3 days after infection): 1/53 | Comparison of virus titers (virus titer for administration of PBS on each day after infection is defined as 1) ([2]; 5 days after infection): 1/89 | mouse lung virus titer ([2]; day 1 of infection): 5.88 log10 PFU | increase of lung virus titer as compared to day 1 of infection ([2]; day 3 of infection): 15.4 fold | mouse lung virus titer ([2]; day 3 of infection): 6.83 log10 PFU | increase of lung virus titer as compared to day 1 of infection ([2]; day 5 of infection): 122 fold | mouse lung virus titer ([2]; day 5 of infection): 7.76 log10 PFU | number of activated T cells relative to Control group 5 (T cells): about one-third | ratio of activated T cells in the T cells (T cells): 7.3% | ratio of NK cells in viable cells in the lung (NK cells): about 1.8% | ratio of NK cells in viable cells relative to Control group (NK cells): about one-quarter | ratio of activated NK cells in the NK cells (NK cells): 46.2% | body weights decreased by up to ([3]; mice whose body weight decreased): about 34% | mice died during the test period ([3]; oral, until day 17 of infection): 50%

From US20140199346A1 (priority 2009, published 2014)
